Results reported in patent US11873298B2, “Compounds and uses thereof” (JANSSEN PHARMACEUTICA NV, priority 2017, dated 2024).

Key:
SCD1 = molecular target: T1, SCD1 (Homo sapiens, UniProt O00767); assay: Growth inhibition of humanized yeast strain expressing SCD1 as sole desaturase; format: cell-based
T1 construct: host or cells: S. cerevisiae ole1Δ strain (W303 pdr1Δ pdr3Δ background), plasmid pRS316 with TDH3 promoter and CYC1 terminator
T1 sequence (O00767 1-359): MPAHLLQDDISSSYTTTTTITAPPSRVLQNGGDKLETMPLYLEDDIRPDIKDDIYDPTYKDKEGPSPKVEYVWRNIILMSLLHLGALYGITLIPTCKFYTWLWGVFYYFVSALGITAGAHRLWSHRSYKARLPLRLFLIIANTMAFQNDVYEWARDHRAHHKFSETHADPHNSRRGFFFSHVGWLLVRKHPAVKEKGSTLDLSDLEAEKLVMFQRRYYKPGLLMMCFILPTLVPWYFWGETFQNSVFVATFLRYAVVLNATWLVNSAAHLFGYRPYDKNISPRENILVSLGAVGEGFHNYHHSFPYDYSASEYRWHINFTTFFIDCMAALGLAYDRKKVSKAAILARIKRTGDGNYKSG
Method: (§1) Strain oleΔ (yeast ole1 deletion mutant) was constructed by deleting OLE1 with NAT-MX6 in BY4741, amplifying the deletion cassette from the genomic DNA of the resulting strain with primers flanking the ORF by 1000 bp upstream and downstream, transforming the resulting deletion cassette into W303 pdr1Δ pdr3Δ, and plating transformants on YPD media containing G418 (200 μg/mL) and nourseothricin ([…]) with 0.01% TWEEN®-20 and 0.5 mM oleic and palmitoleic acids.
(§2) The coding sequence of yeast OLE1 was also cloned into this plasmid). These clones were then transformed into the ole1Δ strain and plated on CSM-Ura media (CSM lacking uracil) with 2% glucose (w/v) and independent colonies were isolated and amplified.
(§3) All compound profiling experiments were performed using the same basic protocol. Different genetic backgrounds (e.g., gene deletions) or conditions (e.g., addition of oleic and palmitoleic acid) were replaced as indicated below.
(§4) Yeast were cultured using standard techniques in complete synthetic media (CSM) and yeast nitrogen base supplemented with 2% (w/v) carbon source (glucose, raffinose, or galactose) to regulate the expression of the toxic disease protein. An initial starter culture was inoculated in 3 mL CSM-Glucose media and incubated overnight in a 30° C. shaker incubator (225 rpm). Saturated morning cultures were then diluted 1:20 in fresh CSM-Raffinose media and grown for 6 h to an OD600 (optical density) of ˜0.4-0.8 at 30° C. with shaking.
(§5) Compound administration was performed in two separate steps. First, 15 μL of CSM-Galactose (induces expression of toxic protein) was dispensed into clear 384 well assay plates using a MULTIDROP™ Combi reagent dispenser. […] The cultures described above were then diluted to a 2× concentration (0.03 and 0.08 for alpha-synuclein and ApoE, final ODsoo of 0.015 and 0.04) in CSM-Galactose. For wild-type and Ole1/SCD1/SCD5 plasmid-containing strains, the 2× cell density was 0.02. […] For 96-well assays (FIGS. 1A and 1B), compound dilutions in DMSO were generated in 96 well plates and 1 μL was manually pipetted into 96 well clear bottom assay plates.
(§6) For experiments using a plasmid-borne copy of Ole1, SCD1, or SCD5 (FIGS. 3B, 6, and 7), media lacking uracil (SX-Ura, where X is glucose, raffinose, or galactose), was used for all steps of the compound profiling protocol to ensure its maintenance throughout the assay.
(§7) After yeast delivery, assay plates were incubated under humidified conditions at 30° C. for 24 to 40 h. ApoE4 rescue experiments were stopped at 24 h, aSyn experiments at 40 h, Ole1 at 24 h, and SCD1/SCD5 at 40 h. The growth of yeast was monitored by reading the ODsoo of each well using a microplate reader (Perkin Elmer EnVision™).

SCD5 = molecular target: T2, SCD5 (Homo sapiens, UniProt Q86SK9); assay: Growth inhibition of humanized yeast strain expressing SCD5 as sole desaturase; format: cell-based
T2 construct: host or cells: S. cerevisiae ole1Δ strain (W303 pdr1Δ pdr3Δ background), plasmid pRS316 with TDH3 promoter and CYC1 terminator
T2 sequence (Q86SK9 1-330): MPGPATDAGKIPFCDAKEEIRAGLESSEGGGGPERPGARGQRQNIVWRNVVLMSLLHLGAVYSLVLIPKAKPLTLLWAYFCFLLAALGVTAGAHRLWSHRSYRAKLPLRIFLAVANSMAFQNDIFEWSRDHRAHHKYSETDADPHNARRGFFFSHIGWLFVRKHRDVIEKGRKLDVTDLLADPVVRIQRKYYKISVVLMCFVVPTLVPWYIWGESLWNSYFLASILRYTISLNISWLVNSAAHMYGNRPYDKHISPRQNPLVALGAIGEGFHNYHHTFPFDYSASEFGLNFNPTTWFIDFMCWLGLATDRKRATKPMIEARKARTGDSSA
Method: as §1, §2, §3, §4, §5, §6, §7

[1] = humanized yeast strain expressing SCD1
[2] = humanized yeast strain expressing SCD5
[3] = yeast strain expressing human SCD1 as sole desaturase, Table 8
[4] = yeast strain expressing human SCD5 as sole desaturase, Table 8

SMILES	SCD1 % Max Inhibition (SCD1; [1]) [%]	IC50 (SCD5; [2]) [µM]	SCD5 % Max Inhibition (SCD5; [2]) [%]	also measured
Cc1nn(C)c2cc(-c3noc(C4CCN(Cc5ccccc5)C(=O)C4)n3)ccc12 (stereo not drawn) [Compound 354]	30.16	> 45	4.29	IC50 (SCD1; [1]): > 45 µM
COC(=O)N1CCC(c2nc(-c3ccc4cnn(C(C)C)c4c3)no2)CC1 [Compound 355]	71.31	> 45	3.68	
COC(=O)N1CCN(c2nc(-c3ccc4cnn(C(C)C)c4c3)no2)CC1 [Compound 356]	51.18	> 45	2.88	
CC(C)OC(=O)N1CCC(c2nc(-c3ccc4cnn(C(C)C)c4c3)no2)CC1 [Compound 357]	64.32	> 45	2.31	
CC(C)n1ncc2ccc(-c3noc(C4CCN(C(=O)COc5ccccc5)CC4)n3)cc21 [Compound 358]	59.61	> 45	4.53	
Cn1ncc2ccc(-c3noc(C4CCN(C(=O)OC(C)(C)C)CC4)n3)cc21 [Compound 359]	55.70	> 45	0.81	
CC(C)(C)OC(=O)N1CCC(c2nc(-c3ccc4cnn(C5CC5)c4c3)no2)CC1 [Compound 360]	64.03	> 45	2.38	
CCOC(=O)N1CCC(c2nc(-c3ccc4cnn(C(C)C)c4c3)no2)CC1 [Compound 361]	67.22	> 45	0.95	
CC(C)n1ncc2ccc(-c3noc(N4CCN(C(=O)c5ccccc5)CC4)n3)cc21 [Compound 362]	67.00	> 45	2.26	
CC(C)n1ncc2ccc(-c3noc(C4CCN(C(=O)c5ccc(Cl)cc5)CC4)n3)cc21 [Compound 363]	64.44	> 45	1.99	
CC(C)n1ncc2ccc(-c3noc(N4CCN(C(=O)c5ccccc5Cl)CC4)n3)cc21 [Compound 364]	70.82	> 45	2.22	
Cc1nn(C)c2cc(-c3noc(C4CN(C(=O)OC(C)(C)C)C4)n3)ccc12 [Compound 365]	58.08	> 45	23.74	
CC(C)n1ncc2ccc(-c3noc(N4CCN(C(=O)OC5(C)CC5)CC4)n3)cc21 [Compound 496]		0.445		IC50 (SCD1; [1]): > 45 µM
Cn1ncc2ccc(-c3noc(C4CCNCC4)n3)cc21 [Compound 500]		> 45		IC50 (SCD1; [1]): > 45 µM
COC(=O)N1CCC(c2noc(-c3ccc4cnn([C@@H]5CCOC5)c4c3)n2)CC1 [Compound 876]				IC50 (SCD1; humanized yeast strain, 40 h): > 45 µM
COC(=O)N1CCC(c2noc(-c3ccc4cnn([C@@H]5CCOC5)c4c3)n2)CC1 [Compound 877]				IC50 (SCD1; humanized yeast strain, 40 h): > 45 µM
CC(C)(C)OC(=O)N1CCC(c2noc(-c3ccc4cnn([C@H]5CCOC5)c4c3)n2)CC1 [Compound 1201]				IC50 (SCD1; [3]): 1.4 µM
CC1(OC(=O)N2CCC(c3noc(-c4ccc5cnn([C@H]6CCOC6)c5c4)n3)CC2)CC1 [Compound 1209]				IC50 (SCD1; [3]): 12.6 µM
Cc1cc(-c2nc(C3CCN(C(=O)OC(C)(C)C)CC3)no2)cc(C2CCOC2)n1 (stereo not drawn) [Compound 1266]				IC50 (SCD1; [3]): 31.7 µM
CCC(=O)N1CCC(c2noc(-c3cc(N4CCOCC4)c(F)cn3)n2)CC1 [Compound 1276]				IC50 (SCD5; [4]): 4.68 µM
CC(C)(C)OC(=O)N1CCC(c2noc(-c3ccnc(-c4ccon4)c3)n2)CC1 [Compound 1277]				IC50 (SCD5; [4]): 2.5 µM
O=C(C1CC1)N1CCC(c2noc(-c3cc(C4CCOC4)ccn3)n2)CC1 (stereo not drawn) [Compound 1278]				IC50 (SCD5; [4]): 2.73 µM
CCC(=O)N1CCC(c2noc(-c3cc(C4CCOC4)ccn3)n2)CC1 (stereo not drawn) [Compound 1281]				IC50 (SCD5; [4]): 6.99 µM
CC1CN(c2cc(-c3nc(C4CCN(C(=O)OC(C)(C)C)CC4)no3)ccc2F)CC(C)O1 (stereo not drawn) [Compound 1282]				IC50 (SCD5; [4]): 0.22 µM
